From patent publication US20010003744A1, “Therapeutic compounds” (priority 1994, published 2001)
pIC50: −log10 of the molar value.

Columns and labels:
[1] = Compound cytotoxicity on uninfected MRC5 monolayers, microscopic examination; type: cell-based, human; details: human, uninfected MRC5 cell monolayers (human embryonic lung cells); uninfected MRC5 cells, 5 days, estimated from microscopic examination; read-out: MRC5 tox CC50
Protocol: (§1) HCMV strain AD169 was grown on monolayers of human embryonic lung cells (MRC5 cells) in 96 well plates. After infection of the cells at a ratio of approximately 0.01 infectious virus particles per cell, the compounds to be tested were added to selected wells at six different concentrations, each in triplicate. The same concentrations of compound were also applied to wells containing monolayers of uninfected cells in order to assess compound cytotoxicity. The plates were incubated for 5 days, and the minimum cytotoxic dose was estimated from microscopic examination. The IC50 for antiviral effect was estimated from measurements of HCMV DNA in each well by blotting and quantitive specific DNA hybridization, similar to the method of Gadler. (Antimicrob. Agents Chemother. 1983, 24, 370-374).

HCMV strain AD169 = experiment: Human Cytomegalovirus (HCMV) assay, HCMV DNA hybridization; type: cell-based; details: HCMV strain AD169 on MRC5 cells, 5 days, HCMV DNA by blotting and hybridization
Protocol: as §1

MRC5 cells = experiment: Compound cytotoxicity on uninfected MRC5 monolayers, microscopic examination; type: cell-based, human
Protocol: as §1

melting point	Compound	other results
220 °C (dec.)	C=CCNc1nc2cc(Cl)c(Cl)cc2n1[C@H]1O[C@@H](CO)[C@H](O)[C@@H]1O [Example 4, 2-(Allylamino)-5,6-dichloro-1-(beta-L-ribofuranosyl)-1H-benzimidazole]	CC50 at 5 days [1]: 100 µM; pIC50 (HCMV strain AD169; Human betaherpesvirus 5, 120 h): 5.60 to 6.04
182 to 184 °C	C#CCNc1nc2cc(Cl)c(Cl)cc2n1[C@H]1O[C@@H](CO)[C@H](O)[C@@H]1O [Example 9, 5,6-Dichloro-2-(propargylamino)-1-(beta-L-ribofuranosyl)-1H-benzimidazole]	–
231 to 233 °C	CCCNc1nc2cc(Cl)c(Cl)cc2n1[C@H]1O[C@@H](CO)[C@H](O)[C@@H]1O [Example 10, 5,6-Dichloro-2-(n-propylamino)-1-(beta-L-ribofuranosyl)-1H-benzimidazole]	CC50 at 5 days [1]: 100 µM; pIC50 (HCMV strain AD169; Human betaherpesvirus 5, 120 h): 5.89 to 5.96
136 °C	CC(C)CNc1nc2cc(Cl)c(Cl)cc2n1[C@H]1O[C@@H](CO)[C@H](O)[C@@H]1O [Example 11, 5,6-Dichloro-2-(isobutylamino)-1-(beta-L-ribofuranosyl)-1H-benzimidazole]	–
220 to 222 °C	CCCCNc1nc2cc(Cl)c(Cl)cc2n1[C@H]1O[C@@H](CO)[C@H](O)[C@@H]1O [Example 18, 2-(n-Butylamino)-5,6-dichloro-1-(beta-L-ribofuranosyl)-1H-benzimidazole]	–
121 to 122 °C	CCC(C)Nc1nc2cc(Cl)c(Cl)cc2n1[C@H]1O[C@@H](CO)[C@H](O)[C@@H]1O (stereo partly drawn) [Example 19, 2-(sec-Butylamino)-5,6-dichloro-1-(beta-L-ribofuranosyl)-1H-benzimidazole]	–
123 to 124 °C	OC[C@@H]1O[C@H](n2c(NCCN3CCCC3)nc3cc(Cl)c(Cl)cc32)[C@@H](O)[C@H]1O [Example 22, 5,6-Dichloro-2-((2-(1-pyrrolidinyl)ethyl)amino)-1-(beta-L-ribofuranosyl)-1H-benzimidazole]	–
229 to 230 °C	OC[C@@H]1O[C@H](n2c(NCC3CC3)nc3cc(Cl)c(Cl)cc32)[C@@H](O)[C@H]1O [Example 23, 2-((Cyclopropylmethyl)amino)-5,6-dichloro-1-(beta-L-ribofuranosyl)-1H-benzimidazole]	–
118 to 120 °C	CC(C)(C)Nc1nc2cc(Cl)c(Cl)cc2n1[C@H]1O[C@@H](CO)[C@H](O)[C@@H]1O [Example 24, 2-(tert-Butylamino)-5,6-dichloro-1-(beta-L-ribofuranosyl)-1H-benzimidazole]	–
238 to 240 °C	CNc1nc2cc(Cl)c(Cl)cc2n1[C@H]1O[C@@H](CO)[C@H](O)[C@@H]1O [Example 33, 5,6-Dichloro-2-(methylamino)-1-(beta-L-ribofuranosyl)-1H-benzimidazole]	–
155 to 157 °C	CCNc1nc2cc(Cl)c(Cl)cc2n1[C@H]1O[C@@H](CO)[C@H](O)[C@@H]1O [Example 34, 5,6-Dichloro-2-(ethylamino)-1-(beta-L-ribofuranosyl)-1H-benzimidazole]	CC50 at 5 days [1]: 100 µM; pIC50 (HCMV strain AD169; Human betaherpesvirus 5, 120 h): 6.07 to 6.12

Further lines, the compound ahead of its results:

Compound	melting point	other results
CC(=O)OC[C@@H]1O[C@H](n2c(Br)nc3cc(Cl)c(Cl)cc32)[C@@H](OC(C)=O)[C@H]1OC(C)=O [Example 1, 2-Bromo-5,6-dichloro-1-(2,3,5-tri-O-acetyl-beta-L-ribofuranosyl)-1H-benzimidazole]	< 65 °C	–
OC[C@@H]1O[C@H](n2c(Br)nc3cc(Cl)c(Cl)cc32)[C@@H](O)[C@H]1O [Example 2, 2-Bromo-5,6-dichloro-1-(beta-L-ribofuranosyl)-1H-benzimidazole]	169 °C	–
CC(C)Nc1nc2cc(Cl)c(Cl)cc2n1[C@H]1O[C@@H](CO)[C@H](O)[C@@H]1O [Example 5, 5,6-Dichloro-2-(isopropylamino)-1-(beta-L-ribofuranosyl)-1H-benzimidazole]	–	CC50 at 5 days [1]: 100 µM; pIC50 (HCMV strain AD169; Human betaherpesvirus 5, 120 h): 7.30 to 7.52
OC[C@@H]1O[C@H](n2c(NC3CCCC3)nc3cc(Cl)c(Cl)cc32)[C@@H](O)[C@H]1O [Example 6, 2-(Cyclopentylamino)-5,6-dichloro-1-(beta-L-ribofuranosyl)-1H-benzimidazole]	140 °C	–
OC[C@@H]1O[C@H](n2c(NCc3ccccc3)nc3cc(Cl)c(Cl)cc32)[C@@H](O)[C@H]1O [Example 7, 2-(Benzylamino)-5,6-dichloro-1-(beta-L-ribofuranosyl)-1H-benzimidazole]	123 °C	–
OC[C@@H]1O[C@H](n2c(N3CCC3)nc3cc(Cl)c(Cl)cc32)[C@@H](O)[C@H]1O [Example 8, 2-Azetidino-5,6-dichloro-1-(beta-L-ribofuranosyl)-1H-benzimidazole]	–	CC50 (MRC5 cells): 100 µM; pIC50 (HCMV strain AD169): 4.39
OCCNc1nc2cc(Cl)c(Cl)cc2n1[C@H]1O[C@@H](CO)[C@H](O)[C@@H]1O [Example 12, 2-((5,6-Dichloro-1-(beta-L-ribofuranosyl)-1H-benzimidazol-2-yl)amino)ethanol]	–	CC50 at 5 days [1]: 100 µM; pIC50 (HCMV strain AD169; Human betaherpesvirus 5, 120 h): 5.24 to 5.46
OC[C@@H]1O[C@H](n2c(NC3CCC3)nc3cc(Cl)c(Cl)cc32)[C@@H](O)[C@H]1O [Example 20, 2-(Cyclobutylamino)-5,6-dichloro-1-(beta-L-ribofuranosyl)-1H-benzimidazole]	220 to 221 °C	–
CC(C)(C)Nc1nc2cc(Cl)c(Cl)cc2[nH]1 [Example 26, 2-(tert-Butylamino)-5,6-dichloro-1H-benzimidazole]	219 to 221 °C	–
Nc1nc2cc(Cl)c(Cl)cc2n1[C@H]1O[C@@H](CO)[C@H](O)[C@@H]1O [Example 27, 2-Amino-5,6-dichloro-1-(beta-L-ribofuranosyl)-1H-benzimidazole]	110 to 112 °C	–
OC[C@@H]1O[C@@H](n2c(NC3CC3)nc3cc(Cl)c(Cl)cc32)[C@@H](O)[C@H]1O [Example 35, 2-Cyclopropylamino-5,6-dichloro-1-(alpha-L-ribofuranosyl)-1H-benzimidazole]	140 to 141 °C	–
